One block for each compound: values may come before it. Where no end group is shown, it is not given here.
Assays:
[1] = In vivo disappearance of GLP-1; design: species or system male C57Bl6/JRj mice; conditions: 800 fmol into vena cava, n=4
[2] = estimated, after secretion; ref [2]; cited from earlier work
[3] = In vivo disappearance of GLP-1; design: species or system male C57Bl6/JRj mice; conditions: 800 fmol i.v. tail vein; sitagliptin 10 mg/kg oral 30 min before; Alpco kit; n=5
[4] = tested on: blood glucose; test: Blood glucose during OGTT with in vivo enzyme inhibition; design: species or system male C57Bl/6JRj mice; conditions: valine pyrrolidide only, mean [95% CI], p=0.0023
[5] = tested on: intact GLP-1; type: in vivo, male C57Bl/6JRj mice
[6] = in humans; background statement, no reference given; cited from earlier work

initial peak plasma value, sitagliptin only ([1]; sitagliptin 30 min before): ~50 pmol/L | calculated half-life, sitagliptin [3]: 1.53 min
Compound: CC[C@H](C)[C@H](NC(=O)[C@H](Cc1ccccc1)NC(=O)[C@H](CCC(=O)O)NC(=O)[C@H](CCCCN)NC(=O)[C@H](C)NC(=O)[C@H](C)NC(=O)[C@H](CCC(N)=O)NC(=O)CNC(=O)[C@H](CCC(=O)O)NC(=O)[C@H](CC(C)C)NC(=O)[C@H](Cc1ccc(O)cc1)NC(=O)[C@H](CO)NC(=O)[C@H](CO)NC(=O)[C@@H](NC(=O)[C@H](CC(=O)O)NC(=O)[C@H](CO)NC(=O)[C@@H](NC(=O)[C@H](Cc1ccccc1)NC(=O)[C@@H](NC(=O)CNC(=O)[C@H](CCC(=O)O)NC(=O)[C@H](C)NC(=O)[C@@H](N)Cc1c[nH]cn1)[C@@H](C)O)[C@@H](C)O)C(C)C)C(=O)N[C@@H](C)C(=O)N[C@@H](Cc1c[nH]c2ccccc12)C(=O)N[C@@H](CC(C)C)C(=O)N[C@H](C(=O)N[C@@H](CCCCN)C(=O)NCC(=O)N[C@@H](CCCNC(=N)N)C(N)=O)C(C)C [GLP-1(7–36)NH2]
half-life, control ([1]; isoflurane-sedated mice, no inhibitors): 0.79 min | half-life, sitagliptin ([1]; isoflurane-sedated mice, sitagliptin 30 min before): 1.35 min | share of intact GLP-1 that reaches the systemic circulation [2]: 7-8%

Compound: CC(C)[C@H](N)C(=O)N1CCCC1 [valine pyrrolidide]
suppression in the rise of glucose at 20 minutes (difference versus control) [4]: -6.2 mmol/L | intact GLP-1 level after the OGTT ([5]; i.p. valine pyrrolidide 15 mg/kg 30 min before OGTT, Alpco kit, mean ± SD, n=5, SD): 5.1 ± 0.9 pmol/L | intact GLP-1 level after the OGTT, at 10 minutes ([5]; oral valine pyrrolidide 20.6 mg/kg 30 min before OGTT, Alpco kit, mean ± SD, n=5, SD): 9.2 ± 6.3 pmol/L

Compound: GLP-1(9–36)NH2 (EGTFTSDVSSYLEGQAAKEFIAWLVKGR-NH2; UniProt P01275 100-127, looked up, fragment)
plasma half-life [6]: about 5 min

Compound: CCOC(=O)[C@H](C)C[C@@H](Cc1ccc(-c2ccccc2)cc1)NC(=O)CCC(=O)O [sacubitril]
difference in AUC of intact GLP-1 versus control ([5]; sacubitril alone, oral 0.3 mg/kg, 30 min before OGTT, mean [95% CI], p>0.99, n=6): 4.0 pmol/L/min

Compound: N[C@@H](CC(=O)N1CCn2c(nnc2C(F)(F)F)C1)Cc1cc(F)c(F)cc1F [sitagliptin, Sitagliptin]
intact GLP-1 level after the OGTT, at 5 minutes ([5]; oral sitagliptin 10 mg/kg 30 min before OGTT, Alpco kit, mean ± SD, n=6, SD): 10.9 ± 3.9 pmol/L
